What was measured:
9L^HSV1-tk cells = test: In vitro uptake assay; type: cell-based, rat; settings: 1 and 3 h of incubation, 1 μCi
Method: One million cells (9L^wt and 9L^HSV1-tk in triplicates) were incubated in […] medium containing 1 μCi [^125I]FIAU at 37° C. for 1 and 3 h. Cells were pelleted by centrifugation and washed 3 times with cold PBS. Gamma counter was used to monitor the radioactivity of the incubating medium and the incubated cells. [^125I]FIAU uptake was determined as the relative radioactivity (in percentage) of the cells to that of the incubating [^125I]FIAU medium (without cells).

HSV1-TK = biological target: T1, HSV1-TK (Human herpesvirus 1, UniProt P0DTH5); test: SPECT/CT imaging of HSV1-TK expression; type: in vivo, mice; settings: 3 h after iv injection
T1 construct: V5; expressed in transfected cells; host or cells: 9L rat glioma cells transfected with pcDNA3.1-HSV1-tk, single G418-selected clone, implanted in NOD-SCID mouse brain
T1 sequence (P0DTH5 whole entry): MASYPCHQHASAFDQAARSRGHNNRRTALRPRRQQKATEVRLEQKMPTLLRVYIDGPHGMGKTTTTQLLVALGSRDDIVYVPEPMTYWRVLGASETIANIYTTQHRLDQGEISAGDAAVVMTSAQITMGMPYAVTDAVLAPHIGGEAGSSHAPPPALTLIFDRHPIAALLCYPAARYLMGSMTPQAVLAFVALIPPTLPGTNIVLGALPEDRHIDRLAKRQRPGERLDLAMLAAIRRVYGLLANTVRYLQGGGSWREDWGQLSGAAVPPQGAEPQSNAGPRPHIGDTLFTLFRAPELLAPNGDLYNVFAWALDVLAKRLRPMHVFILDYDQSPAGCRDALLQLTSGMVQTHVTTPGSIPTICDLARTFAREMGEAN
Method: An X-SPECT small-animal SPECT/CT system (Gamma Medica-Ideas) was used for image acquisition as previously described (Nimmagadda et al., J. Nucl. Med. 2009, 50, 1124). Briefly, seven days after cell implantation, the mice were injected iv with 50.3 MBq (1.36 mCi) of ^[125I]FIAU. SPECT data were acquired 3 h after radiotracer injection, and the obtained images were coregistered with the corresponding 512 slice CT images. Fused SPECT/CT transaxial sections of 1 mm thickness were generated using Amira 5.2.0 software (Visage Imaging Inc.) showing the SPECT signal obtained from the brain.

[1] = biological target: T2, Escherichia coli CDase (CodA) (Escherichia coli, UniProt P25524); test: Deamination by crude recombinant CDase extracts measured using CEST MRI; type: biochemical; settings: 20 mM substrate, crude CDase extract, 37° C.
T2 construct: 6xHis (C); made in house; host or cells: E. coli BL21 (DE3), crude protein extract
T2 sequence (P25524 whole entry): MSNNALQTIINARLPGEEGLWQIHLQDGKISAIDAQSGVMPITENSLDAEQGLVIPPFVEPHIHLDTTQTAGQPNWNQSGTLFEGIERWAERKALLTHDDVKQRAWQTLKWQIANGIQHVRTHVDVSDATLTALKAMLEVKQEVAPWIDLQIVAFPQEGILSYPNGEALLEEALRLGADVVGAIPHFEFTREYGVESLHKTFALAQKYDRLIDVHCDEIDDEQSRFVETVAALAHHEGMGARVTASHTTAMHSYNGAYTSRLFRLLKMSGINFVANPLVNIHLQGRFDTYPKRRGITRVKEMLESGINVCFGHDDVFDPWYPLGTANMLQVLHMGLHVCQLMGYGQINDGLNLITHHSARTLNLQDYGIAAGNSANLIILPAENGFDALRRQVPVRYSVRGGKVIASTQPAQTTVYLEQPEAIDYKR
Method: FIGS. 9A-9D show monitoring of recombinant CDase activity using CEST MRI. (FIG. 9A) Western blot using an anti-six-histidine-tag antibody of protein extracts from E. coli engineered to express CD or HSV1-tk (TK). (FIG. 9B) Deamination of cytosine and 5FC (20 mM) by crude CDase extracts measured using CEST MRI at 37° C. and 9.4 T. Conversion was quantified as (1−MTR^tasym/MTR^0asym)×100%, where MTR^tasym/MTR^0asym are the contrasts at time t, and at t=0, respectively. (FIG. 9C, D) maps and statistical analysis (two tailed unpaired students t-test; n=3) of 20 mM (FIG. 9C) cytosine and (FIG. 9D) 5 FC incubated with CDase (0.6 ug crude protein) for 24 hours.
The gene encoding the E. coli Cytosine Deaminase (CDase, CodA) was obtained from the American Type Culture Collection (ATCC Cat. 4099). […] Both genes were sub-cloned into the pEXP5-CT expression vector (Invitrogen) in a reading frame with a C-terminal six-histidine tag under a T7 promoter. […] The recombinant proteins were expressed after induction in Magic Media™ (Invitrogen), and both could be detected with Western blot using an anti-6-histidine tag antibody. […]
Data processing was performed using custom-written scripts in MATLAB (Mathworks, Waltham, Mass.). CEST spectra were calculated from the mean of an ROI placed over each sample after B0 correction of the contrast on a per voxel basis. […]

9L cells [2] = test: CEST MRI of culture media, CDase activity in 9L cells; type: cell-based, Rat; settings: CDase-expressing 9L cells, 48 h incubation
Description: (§1) All MR images were acquired with a 9.4T Bruker Avance system equipped with a 15 mm sawtooth RF coil. A modified RARE sequence (TR=6.0 sec, effective TE=43.2 ms, RARE factor=16, slice thickness=0.7 mm, FOV=14×14 mm, matrix size=128×64, resolution=0.11×0.22 mm^2, and NA=2) including a magnetization transfer (MT) module (one CW pulse, B=[…] (150 Hz), 3 sec) was used to acquire CEST-weighted images from −6 ppm to 6 ppm (step=0.2 ppm) around the water resonance (0 ppm). The absolute water resonant frequency shift was measured using a Water Saturation Shift Reference (WASSR) (Kim, M. et al. Magnetic Resonance in Medicine 2009, 61, 1441) method modified (Liu, G. et al. Contrast Media Mol Imaging 2010, 5, 162) with Lorentzian analysis. […]
(§2) Data processing was performed using custom-written scripts in MATLAB (Mathworks, Waltham, Mass.). CEST spectra were calculated from the mean of an ROI placed over each sample after B0 correction of the contrast on a per voxel basis. The CEST signal was quantified using MTRasym at specific offsets of interest (i.e., &ω=+2 ppm for cytosine or +2.4 ppm for 5FC) using the definition: MTRasym=(S^−˜ω−S^+″ω)/S0, where and s[−˜ω, +Aω] is the water signal intensity in the presence of a saturation pulse at offsets ±Aω, and S0 is water signal intensity in the absence of a saturation pulse. […]

9L cells [3] = test: 19F NMR detection of conversion of 5FC to 5FU, 9L cells; type: cell-based, Rat; design: key: (−): no 5FU was detected; settings: 10 mM 5FC
Method: (§3) For each cell type, the same number of transduced (CD) or non-transduced (wild type, WT) cells were plated into 6-well plates (5.6×10^6 HEK293FT cells, 10^6 9 L cells, and 1.4×10^6 C17.2 cells, respectively). Approximately 6 hours later, fresh culture medium containing 7 mM cytosine or 10 mM 5FC was added to the cells. Fifty microliters of the culture media were collected at different time points up to 24 hours for HEK293FT cells (i.e. 0.5, 4, 6, and 24 hours), and up to 48 hours for the other two cell lines (i.e., 0.5, 4, 6, 24, and 48 hours). These samples were then transferred into capillaries and measured for CEST signal at 2 ppm for cytosine and 2.4 ppm for 5FC.
(§4) Studies were performed using a 500 MHz Bruker NMR spectrometer. ^19F NMR spectra of the enzymatic mixture or aqueous solutions of 10 mM 5FC and 5FU standards (FIG. 30 a and b) were acquired using a single-pulse sequence with a flip angle of 90°, TR=5 sec, and NA=32, carried out at 25° C. with the spectra centered at the resonance frequency of 5FC. NMR data were processed and plotted using Topspin (Bruker, M A). For the cell culture media incubated with 10 mM 5FC for 24 and 48 hours for all three cell types, the ^19F NMR spectrum was measured using the same protocol, except the number of averages was changed to 64 to improve SNR. 5FU peaks were only detected for HEK293FT cells after 24-hour and for 9L cells after 48 hours (FIG. 30 c,d). The complete results of the conversion detected using F NMR are listed in Table 1, as quantified by a conversion rate=peak area(5FU)/(peak area(5FU)+peak area(5FC)).

C17.2 cells = test: 19F NMR detection of conversion of 5FC to 5FU, C17.2 cells; type: cell-based, mouse; design: key: (−): no 5FU was detected; settings: 10 mM 5FC
Method: as §3, §4

HEK293FT cells [4] = test: 19F NMR detection of conversion of 5FC to 5FU, HEK293FT cells; type: cell-based, Human; design: key: (−): no 5FU was detected; settings: 24 hours, 10 mM 5FC
Method: as §3
as §4, with “NMR data were processed and plotted using Topspin (Bruker, M A).” left out, “The complete results of the conversion detected using F NMR are listed in Table 1, as quantified by a conversion rate=peak area(5FU)/(peak area(5FU)+peak area(5FC)).” left out

9L = test: Cell proliferation assay, 9L; type: cell-based, Rat; settings: CD-transduced 9L, 10 mM 5FC, 40 hours
Method: (§5) Both wild type- and CD-transduced cells were plated in 96-well cell culture plates to reach a sufficient cell number before 5FC treatment. Then media were replaced with media containing 10 mM 5FC. After 40 hours of incubation, cell viability was determined using a […] assay kit (Invitrogen).

HEK293FT = test: Cell proliferation assay, HEK293FT; type: cell-based, Human; settings: CD-transduced HEK293FT, 10 mM 5FC, 40 hours
Method: as §5

HEK293FT cells [5] = test: CEST MRI of culture media, CDase activity in HEK293FT cells; type: cell-based, Human; settings: HEK-293FT; 7 mM cytosine or 10 mM 5FC
Description: as §1, §2

[6] = CEST MRI of pyrrolo-dC in PBS; type: physicochemical; settings: 20 mM in PBS, 5.8 ppm, 11.7T
Method: (§6) Pyrrolo-dC was dissolved in 10 mM PBS at 20 mM concentration. CEST MRI experiments were performed on an 11.7T Bruker Avance system as previously described (G. Liu et al., Contrast Media Mol Imaging 5, 162 (2010)). A modified RARE (TR/TE=6000/9.4 ms) including a magnetization transfer module (B1=4.7 μT/4000 ms) was used to acquire CEST weighted images. The absolute water resonant frequency shift was measured using a modified WASSR method, with the same parameters as in CEST imaging except TR=1.5 sec and saturation pulse of B1=0.5 μT/250 ms. Mean CEST-spectra were derived from a ROI for each sample, after B0 correction for each voxel using MatLab. MTR asymmetry (MTRasym)=100×(S^−Δω−S^+Δω/S0 was computed at different offsets Δω. 9L rat glioma, engineered to express Drosophila melanogaster 2′-deoxynucleoside kinase (Dm-dNK; 9L^Dm-dNK) and control, non-expressing cells (9L^wt), 5×10^6 cells per group, were incubated for 4 hours at cell-culture medium containing 2 mM pyrrolo-dC. Then, the cells were washed with PBS, lysed and fluorescence was measured in triplicates using a plate reader (lex355 nm/lem460 nm).

Dm-dNK = biological target: T3, Dm-dNK (Drosophila melanogaster, UniProt Q9XZT6); test: Fluorescence of cell lysates after incubation with pyrrolo-dC; type: cell-based, rat; settings: 2 mM, 4 hours
T3 construct: expressed in transfected cells; host or cells: 9L rat glioma cells transfected with a pcDNA vector
T3 sequence (Q9XZT6 whole entry): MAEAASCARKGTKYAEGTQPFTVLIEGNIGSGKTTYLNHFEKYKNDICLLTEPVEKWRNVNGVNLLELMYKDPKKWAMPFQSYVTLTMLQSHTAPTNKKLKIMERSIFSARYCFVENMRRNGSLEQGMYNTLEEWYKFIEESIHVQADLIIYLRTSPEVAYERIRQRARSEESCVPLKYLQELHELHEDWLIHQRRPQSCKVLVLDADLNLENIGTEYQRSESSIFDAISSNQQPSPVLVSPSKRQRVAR
Method: as §6

[7] = Exchange rate estimation by QUEST method; type: physicochemical; settings: pH 7.4, 37° C.; cytosine 2 ppm, 5FC 2.4 ppm
Method: The exchange rate of exchangeable protons with a frequency of 2 ppm for cytosine and 2.4 ppm for 5FC at pH=7.4 was measured using the modified Quantifying Exchange using Saturation Time (QUEST) method (McMahon, M. T. et al. Magn Reson Med 2006, 55, 836). In brief, the CEST contrast for samples containing 20 mM cytosine or 5FC (40 mM of amine protons) at pH 7.4 was measured with saturation delays of 0.5, 1, 1.5, 2, 3, 5, and 9.5 sec, using a saturation field strength of 5.9 μT (300 Hz) and a repetition time (TR) set to 10 sec, using the RARE imaging sequence described above. The calculated MTRasym values were then fit using numerical solutions to the Bloch-McConnel equations with an exchange rate (kex). The water T1w and T2w were experimentally determined as approximately 4 sec and 1.6 sec, respectively, using the saturation recovery spin echo method and the CPMG multi-echo spin echo sequence, respectively. The fixed model parameters were water solute R1s=0.71 Hz and solute R2s=39 Hz.

Compound: O=c1[nH]c(=O)n([C@@H]2O[C@H](CO)[C@@H](O)[C@@H]2F)cc1[125I] [[^125I]FIAU]
- uptake in 9L^HSV1-tk cells compared to 9L^wt cells (9L^HSV1-tk cells): significant accumulation
- accumulation in tumors by SPECT/CT (HSV1-TK): only at the ^9LHSV1-tk tumor

Compound: Nc1nc(=O)[nH]cc1F [5FC, 5-fluorocytosine]
- conversion by recombinant CDase after 24 h [1]: not the case
- relative change in MTRasym (9L cells [2]): 12%
- 19F NMR conversion of 5FC to 5FU (9L cells [3]; 9L CD, 24 hours): (−)
- 19F NMR conversion of 5FC to 5FU (9L cells [3]; 9L CD, 48 hours): 8.5%
- 19F NMR conversion of 5FC to 5FU (9L cells [3]; 9L WT, 24 hours): (−)
- 19F NMR conversion of 5FC to 5FU (9L cells [3]; 9L WT, 48 hours): (−)
- 19F NMR conversion of 5FC to 5FU (C17.2 cells; C17.2 CD, 24 hours): (−)
- 19F NMR conversion of 5FC to 5FU (C17.2 cells; C17.2 CD, 48 hours): (−)
- 19F NMR conversion of 5FC to 5FU (C17.2 cells; C17.2 WT, 24 hours): (−)
- 19F NMR conversion of 5FC to 5FU (C17.2 cells; C17.2 WT, 48 hours): (−)
- 19F NMR conversion of 5FC to 5FU (HEK293FT cells [4]; HEK293FT CD): 38.9%
- 19F NMR conversion of 5FC to 5FU (HEK293FT cells [4]; HEK293FT WT): (−)
- number of viable cells after 5FC treatment (9L): considerable decrease in the number of viable cells
- number of viable cells after 5FC treatment (HEK293FT): considerable decrease in the number of viable cells
- incubation time at which a significant difference in MTRasym between transduced and nontransduced cells was observed (HEK293FT cells [5]): 24 h

Compound: Cc1cc2cn([C@H]3C[C@H](O)[C@@H](CO)O3)c(=O)nc2[nH]1 [pyrrolo-dC, Pyrrolo-2′-deoxycytidine]
- CEST contrast (MTRasym maps) [6]: high CEST contrast
- fluorescence of lysate of incubated 9L^Dm-dNK cells (Dm-dNK): high fluorescence level
- fluorescence of lysate of incubated 9L^wt cells (Dm-dNK): no fluorescence was detected

Compound: Nc1cc[nH]c(=O)n1 [cytosine]
- conversion by recombinant CDase after 24 h [1]: nearly complete
- relative change in MTRasym (9L cells [2]): 50%
- exchange rate (kex) of the amine protons, QUEST [7]: 8.1×10^2 Hz
- incubation time at which a significant difference in MTRasym between transduced and nontransduced cells was observed (HEK293FT cells [5]): 4 h
